≈ marks a conversion by molar mass, not a printed value. Where two headings read alike, the source gives them in different places.
Key:
CHO-K1 cells = experiment: WST1 cytotoxicity test on CHO-K1 cells; type: cell-based, Chinese hamster; settings: Cricetulus griseus
Summary of the method: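 Viability read-out: WST-1 tetrazolium cleavage by mitochondrial dehydrogenases, 20 min at 37 °C, A450. Compounds added at rising concentrations, in duplicate, to CHO-K1 cells for 24 h (37 °C, 5% CO2). IC50, the concentration halving viability, fitted by nonlinear regression.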

S. aureus (340) = experiment: MIC determination by microplate dilution, S. aureus animal strain; type: cell-based, Staphylococcus aureus; settings: Staphylococcus aureus, Gram-positive, Mueller-Hinton medium, 24 h, 37° C.
Summary of the method: (§1)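 MH broth; inoculum OD 0.01/well; compound stock 5 mg/mL (DMSO:MeOH 1:1), serial 1/2 dilutions; 37 °C, 24 h, humid; OD 620 nm; n=2.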

S. intermedius (1051997) = experiment: MIC determination by microplate dilution, S. intermedius animal strain; type: cell-based, Staphylococcus intermedius; settings: Staphylococcus intermedius, Gram-positive, Mueller-Hinton medium, 24 h, 37° C.
Summary of the method: as §1

C. albicans = experiment: Antifungal activity, cascade microdilution, C. albicans; type: cell-based, Candida albicans; settings: Candida albicans, 24 h, read-out: IC50 (μg/mL) C. albicans
E. coli ATCC28922 = experiment: MIC determination by microplate dilution, E. coli human strain; type: cell-based, Escherichia coli; settings: Escherichia coli, ATCC28922, Gram-negative, Mueller-Hinton medium, 24 h, 37° C.
Summary of the method: as §1

A. niger = experiment: Antifungal activity, cascade microdilution, A. niger; type: cell-based; settings: Aspergillus niger, 24 h, read-out: IC50 (μg/mL) A. niger
Method: 1) Preparation of the Preculture
A negative control (2 mL of sterile Mueller Hinton MH culture medium)
A positive control (1980 μL of culture medium+20 μL of yeast or fungal suspension) from a thawed biological strain (the biological strains are stored at −80° C. in glycerol).
The tubes were incubated at 37° C. for 24 hours at 100 rpm.
The chemical compounds to be tested were prepared at a concentration of 5 mg/mL (in the form of the hydrochloride in water).
2) Preparation of the Microplate for the Determination of the Minimum Inhibitory Concentration (MIC)
The MIC is obtained by using the cascade microdilution method in sterile 96-well plates. 100 μL of MH culture medium are first placed in each well, and 8 μL of the solution (5 mg/mL) of the test molecule are then added to the first wells. The volume is made up with medium to obtain a total volume of 200 μL in these wells. Serial dilution is then performed by taking 100 μL from the first well, and so on successively from well to well. 100 μL of inoculate containing 2-6×10^5 CFU of yeast or fungi are then added to each well. Certain wells are reserved for positive and negative controls.
3) Reading of the Results
After incubation, an optical density (OD) reading was taken in an iEMS plate spectrophotometer at 620 nm. Calculation of the minimum inhibitory concentration (MIC) was performed.

S. aureus ATCC25923 = experiment: MIC determination by microplate dilution, S. aureus human strain; type: cell-based, Staphylococcus aureus; settings: Staphylococcus aureus, ATCC25923, Gram-positive, Mueller-Hinton medium, 24 h, 37° C.
Summary of the method: as §1

P. aeruginosa (1051575) [1] = experiment: MIC determination by microplate dilution, P. aeruginosa animal strain; type: cell-based, Pseudomonas aeruginosa; settings: Pseudomonas aeruginosa, Gram-negative, Mueller-Hinton medium, 24 h, 37° C.
Summary of the method: as §1

P. aeruginosa (1051575) [2] = experiment: Potentiation of the doxycycline activity at 2 μg/mL; type: cell-based, Pseudomonas aeruginosa; settings: in combination with doxycycline 2 μg/mL; 24 h, 37°
P. aeruginosa ATCC27853 = experiment: MIC determination by microplate dilution, P. aeruginosa human strain; type: cell-based, Pseudomonas aeruginosa; settings: Pseudomonas aeruginosa, ATCC27853, Gram-negative, Mueller-Hinton medium, 24 h, 37° C.
Summary of the method: as §1

E. faecalis ATCC29212 = experiment: MIC determination by microplate dilution, E. faecalis human strain; type: cell-based, Enterococcus faecalis; settings: Enterococcus faecalis, ATCC29212, Gram-positive, Mueller-Hinton medium, 24 h, 37° C.
Summary of the method: as §1

E. coli (1956) = experiment: MIC determination by microplate dilution, E. coli animal strain; type: cell-based, Escherichia coli; settings: Escherichia coli, Gram-negative, Mueller-Hinton medium, 24 h, 37° C.
Summary of the method: as §1

P. aeruginosa (PAO1) = experiment: MIC of doxycycline on P. aeruginosa PAO1; type: cell-based; settings: Pseudomonas aeruginosa; doxycycline alone; Gram-negative strain P. aeruginosa (PAO1)
Method: On the Gram-negative strain of P. aeruginosa (PAO1), doxycycline has an MIC of 40 μg/mL.

P. aeruginosa (1051575) [3] = experiment: Potentiation of ampicillin activity; type: cell-based, Pseudomonas aeruginosa; settings: concentration of compound required with ampicillin 4 μg/mL
Method: (§2) This method requires the use of a 96-well plate: 100 μL of a liquid culture medium are placed in each well and then seeded with the microbial suspension prepared previously. The required volume to be seeded is calculated for an OD of 0.01, which corresponds to about 5×10^6 bacteria in each well. In this plate, the first line corresponds to a negative control (200 μL of sterile culture medium in each well), the second line corresponds to a positive control (100 μL of sterile culture medium+100 μL of the bacterial suspension), and the third line contains 192 μL of culture medium; 8 μL of compound of formula (I) to be tested are placed in each well. […] 92 μL of bacterial suspension are then added to lines 3 to 8. […] After 24 hours of incubation at 37° C., 40 μL of nitro tetrazolium iodide are added to each well to reveal the presence of live bacteria by staining the medium pink.
(§3) The procedure is identical to that indicated in Example 5 above. […]
(§4) The results are given in table V. They indicate the concentration of compound of formula (I) required to be able to restore the activity of the antibiotic under consideration.

P. aeruginosa (1051575) [4] = experiment: Potentiation of erythromycin activity; type: cell-based, Pseudomonas aeruginosa; settings: concentration of compound required with erythromycin 2 μg/mL
Method: This method requires the use of a 96-well plate: 100 μL of a liquid culture medium are placed in each well and then seeded with the microbial suspension prepared previously. The required volume to be seeded is calculated for an OD of 0.01, which corresponds to about 5×10^6 bacteria in each well. In this plate, the first line corresponds to a negative control (200 μL of sterile culture medium in each well), the second line corresponds to a positive control (100 μL of sterile culture medium+100 μL of the bacterial suspension), and the third line contains 192 μL of culture medium; 8 μL of compound of formula (I) to be tested are placed in each well. Thereafter, a cascade dilution is performed from this line. […] (1 mg dissolved in 20 mL) are then added to each well of the lines 3 to 8 to obtain a final antibiotic concentration of 2 μg/mL. 92 μL of bacterial suspension are then added to lines 3 to 8. […] After 24 hours of incubation at 37° C., 40 μL of nitro tetrazolium iodide are added to each well to reveal the presence of live bacteria by staining the medium pink.
The procedure is identical to that indicated in Example 5 above. 8 μL of an antibiotic solution under consideration (1 mg dissolved in 20 mL) are added to obtain a final antibiotic concentration of 2 μg/mL instead of 8 μL of a doxycycline solution.
as §4

P. aeruginosa (1051575) [5] = experiment: Potentiation of chloramphenicol activity; type: cell-based, Pseudomonas aeruginosa; settings: concentration of compound required with chloramphenicol 4 μg/mL
Method: as §2, §3, §4

[6] = CHO-K1, 24 h, read-out: IC50 (μg/mL) CHO
[7] = CHO-K1, read-out: IC50 (μg/mL) CHO

Work on `COC(=O)CC[C@@H](C)[C@H]1CCC2C3C(CC[C@@]21C)[C@@]1(C)CC[C@H](NCCCN(CCCN)CCCN)CC1C[C@H]3O` (stereo partly drawn) [(38), methyl 3β-(tris(3-aminopropyl)amine)chenodeoxycholate] yielded an IC50 (CHO-K1 cells; [6]) of 17 µg/mL (≈ 29.5 µM), an IC50 (CHO-K1 cells; [7]) of 17 µg/mL (≈ 29.5 µM) and an MIC (S. aureus (340)) of 14 µg/mL (≈ 24.3 µM). It also gave an MIC (S. intermedius (1051997)) of 29 µg/mL (≈ 50.3 µM), an IC50 (C. albicans) of 115 µg/mL (≈ 199 µM) and an MIC (E. coli ATCC28922) of 28 µg/mL (≈ 48.5 µM). It also gave an IC50 (A. niger) of 4 µg/mL (≈ 6.93 µM), an MIC (S. aureus ATCC25923) of 14 µg/mL (≈ 24.3 µM) and an MIC (P. aeruginosa (1051575) [1]) of 14 µg/mL (≈ 24.3 µM). For the same compound, the “MIC - P. aeruginosa (1051575): content of compound of formula (I) to restore the doxycycline activity (at 2 μg/mL)” value (shortened to “MIC - P. aeruginosa (1051575): content”) (P. aeruginosa (1051575) [2]) was 2 µg/mL, the MIC (P. aeruginosa ATCC27853) was 28 µg/mL (≈ 48.5 µM) and the MIC (E. faecalis ATCC29212) was 3.5 µg/mL (≈ 6.07 µM). For the same compound, the MIC (E. coli (1956)) was 14 µg/mL (≈ 24.3 µM).

Work on `C[C@H]1c2cccc(O)c2C(=O)C2=C(O)[C@]3(O)C(=O)C(C(N)=O)=C(O)[C@@H](N(C)C)[C@@H]3[C@@H](O)[C@@H]21` [doxycycline] yielded an MIC (P. aeruginosa (PAO1)) of 40 µg/mL.

With `CC(C)OC(=O)CC[C@@H](C)[C@H]1CCC2C3C(CC[C@@]21C)[C@@]1(C)CC[C@H](NCCCNCCCNCCCN)CC1C[C@H]3O` (stereo partly drawn) [Compound (10), isopropyl 3β-norsperminochenodeoxycholate] the IC50 (CHO-K1 cells; [6]) was 85 µg/mL (≈ 141 µM), the IC50 (CHO-K1 cells; [7]) was 85 µg/mL (≈ 141 µM) and the MIC (S. aureus (340)) was 2 µg/mL (≈ 3.31 µM). It also gave an MIC (S. intermedius (1051997)) of 0.8 µg/mL (≈ 1.32 µM), an IC50 (C. albicans) of 2 µg/mL (≈ 3.31 µM) and an MIC (E. coli ATCC28922) of 16 µg/mL (≈ 26.4 µM). For the same compound, the IC50 (A. niger) was 4 µg/mL (≈ 6.61 µM), the MIC (S. aureus ATCC25923) was 4 µg/mL (≈ 6.61 µM) and the MIC (P. aeruginosa (1051575) [1]) was 4 µg/mL (≈ 6.61 µM). The “MIC - P. aeruginosa (1051575): content” value (P. aeruginosa (1051575) [2]) was 2 µg/mL, the MIC (E. faecalis ATCC29212) was 8 µg/mL (≈ 13.2 µM) and the MIC (E. coli (1956)) was 10 µg/mL (≈ 16.5 µM).

For `CC(C)OC(=O)CC[C@@H](C)[C@H]1CCC2C3C(CC[C@@]21C)[C@@]1(C)CC[C@H](NCCN(CCN)CCN)CC1C[C@H]3O` (stereo partly drawn) [(40), isopropyl 3β-(tris(2-aminoethyl)amine)chenodeoxycholate], the “MIC P. aeruginosa (1051575), compound + ampicillin” value (P. aeruginosa (1051575) [3]) was 28 µg/mL, the IC50 (CHO-K1 cells; [7]) was 140 µg/mL (≈ 249 µM) and the MIC (S. aureus (340)) was 14 µg/mL (≈ 24.9 µM). For the same compound, the MIC (S. intermedius (1051997)) was 7 µg/mL (≈ 12.4 µM), the IC50 (C. albicans) was 7 µg/mL (≈ 12.4 µM) and the MIC (E. coli ATCC28922) was 14 µg/mL (≈ 24.9 µM). For the same compound, the MIC (S. aureus ATCC25923) was 14 µg/mL (≈ 24.9 µM), the “MIC - P. aeruginosa (1051575): content” value (P. aeruginosa (1051575) [2]) was 4 µg/mL and the “MIC P. aeruginosa (1051575), compound + erythromycin” value (P. aeruginosa (1051575) [4]) was 56 µg/mL. The MIC (P. aeruginosa ATCC27853) was 56 µg/mL (≈ 99.5 µM), the MIC (E. faecalis ATCC29212) was 14 µg/mL (≈ 24.9 µM) and the “MIC P. aeruginosa (1051575), compound + chloramphenicol” value (P. aeruginosa (1051575) [5]) was 4 µg/mL. The MIC (E. coli (1956)) was 28 µg/mL (≈ 49.7 µM).
